Molecular target: T1, PcSRB (rPcSRB)
T1 construct: recombinant, pET-32a(+) BamHI/XhoI, His-tagged, tag kept
Test: microscale thermophoresis, RED-tris-NTA labelled protein
Type: binding, Procambarus clarkii
Conditions: PBS-T; His-tagged protein labelled, ligand unlabelled

CC(C)CCC[C@@H](C)[C@H]1CC[C@H]2[C@@H]3CC=C4C=CCC[C@]4(C)[C@H]3CC[C@]12C [CD3,5, cholesta-3,5-diene]
Kd: 4.5 µM

— paper PMC11915803, “Class B scavenger receptor resists WSSV replication by recognizing the viral lipid molecule and promoting phagocytosis” (Journal of Virology, 2025)
